Measured values published in patent US20060051295A1, “Estrogen receptor interaction with a transcription factor” (priority 2002, published 2006).

Tests used:
[1] = tested on: cRel + ER alpha; test: Transrepression of c-Rel induced reporters, U-2 OS co-transfected with ERα; assay type: cell-based, human
Description: Next was determined whether transrepression by ER is limited to particular NF-κB types, such as c-Rel or RelA, by overexpression of these NF-κB proteins in U-2 OS cells (Table 2). Again, the promoter-reporter constructs for the E-selectin, ICAM and VCAM genes were used in these experiments. Significant activation of these reporters by overexpression of c-Rel was observed. This activation was strongly and reproducibly transrepressed by both ERα and ERβ (Table 2).
Table 2. Estrogen-dependent transrepression of the promoters from E-selectin, VCAM and ICAM and a synthetic NF-κB responsive reporter, measured as the amount of luciferase activity. Transient (co-)transfections of ERα (or ERβ) and reporter were performed in U-2 OS cells. Reporter activity was induced by cellular exposure to Il-1β or by co-transfection of the NF-κB genes c-Rel or RelA. […] For detailed information on the composition of the reporters used, see appendix 1. The hyphen (-) in the table indicates the test with cells without transfected cDNA and no additives in medium; n.d. means: not determined.
(§1) For transient transfections, cells were seeded in 6-well plates (2.10^5 cells/well). After two or three days the cells were transfected with reporter, expression vectors and β-galactosidase control vector. Two different experimental settings were used. For testing transrepression of IL-1β induced promoter activity, cells were transfected with 1 μg reporter construct, 1 μg expression vector (containing either ERα, ERβ or GR), and 0.25 μg of β-galactosidase control plasmid. For testing transrepression in combination with c-Rel or ReLA overexpression, cells were transfected with 1 μg reporter construct, 1 μg expression vector (containing either ERα, ERβ or GR) and 0.1 or 1.0 μg expression vector containing c-Rel or RelA and 0.25 μg of β-galactosidase control vector. Equivalent amounts of DNA were obtained by adding the appropriate expression vector that lacks an insert. Transient transfection was performed using lipofectin reagent (Life Technologies). […] The transfected cells were incubated overnight with test compounds prior to cell lysis. Measurement of luciferase and P-galactosidase activity were performed using respectively the luciferase assay system (Promega) and Galacto-light plus (Tropix) according to the manufacturers' protocols and measured on the Victor 1420 multilabel counter, Wallac. Detection of β-galactosidase activity was used as a control for transfection efficiency.

[2] = tested on: IL-6 promoter; test: IL-6 promoter reporter in U-2 OS with ERα and NF-κB proteins / c/EBPβ; assay type: cell-based, human
Description: To determine the role of functional ERα/c-Rel interactions in repression of IL-6 production by estrogens, we analysed the effect of various combinations of ERα and NF-κB proteins on IL-6 production using a reporter construct containing the promoter of the IL-6 gene.
as §1, with “Wallac.” for “Wallac. Detection of β-galactosidase activity was used as a control for transfection efficiency.”

Compound: C[C@]12CC[C@@H]3c4ccc(O)cc4CC[C@H]3[C@@H]1CC[C@@H]2O [Org E2, 17β-estradiol]
- luciferase activity, 3*NFkB-reporter [1]: 5140
- luciferase activity, ELAM+ reporter [1]: 3256
- luciferase activity, ELAM− reporter [1]: 569
- luciferase activity, ICAM reporter [1]: 3514
- luciferase activity, VCAM reporter [1]: 259
- luciferase activity, IL-6 promoter reporter ([2]; ERα + C/EBPβ): 2585
- luciferase activity, IL-6 promoter reporter ([2]; ERα + RelA): 19401
- luciferase activity, IL-6 promoter reporter ([2]; ERα + RelA + c/EBPβ): 92837
- luciferase activity, IL-6 promoter reporter ([2]; ERα + RelA + p50): 8232
- luciferase activity, IL-6 promoter reporter ([2]; ERα + c/EBPβ + p50): 1724
- luciferase activity, IL-6 promoter reporter ([2]; ERα + cRel): 1807
- luciferase activity, IL-6 promoter reporter ([2]; ERα + cRel + RelA): 23381
- luciferase activity, IL-6 promoter reporter ([2]; ERα + cRel + c/EBPβ): 6459
- luciferase activity, IL-6 promoter reporter ([2]; ERα + cRel + p50): 1814
- luciferase activity, IL-6 promoter reporter ([2]; ERα + p50): 1447
- luciferase activity, IL-6 promoter reporter ([2]; ERα, no NF-κB protein): 1310
